Assay results from PMC8191290, “Substrate specificities and reaction kinetics of the yeast oligosaccharyltransferase isoforms” (The Journal of Biological Chemistry, 2021).
Like-named read-outs stand apart in the source and are kept apart here.

Target: T1, OST3 complex (Saccharomyces cerevisiae, UniProt P39007)
T1 construct: were purified separately from strains expressing only one type of complex; made in house; host or cells: Saccharomyces cerevisiae, BY4742-derived strain ost6::LEU2MX6 OST4-1D4::kanMX6 YEp352-OST3
Assay: In vitro glycosylation assay, kinetic parameters for acceptor peptides, OST3 complex
Format: biochemical
Conditions: for Km: 10 mM MnCl2, pH 7.5, 30 °C, UPLC TAMRA fluorescence, read-out: KM (apparent); for Km / kcat (apparent): n = 3; for kcat (apparent): 30 °C
Experimental: Figure 2 In vitro glycosylation assay for OST activity and peptide sequence preferences.A, schematic representation of the in vitro reaction setup for yeast OST activity. The peptide substrate containing the glycosylation sequon N-X-(S/T) is labeled with the TAMRA fluorophore at the N-terminus. Incubation with OST, synthetic LLO, and a divalent metal ion (Mn^2+preferred) results in the transfer of the sugar moiety (two GlcNAcs, blue squares) from the LLO to the fluorescently labeled peptide, yielding a glycopeptide product. B, measurement and analysis of the in vitro assay shown in A. Fluorescently labeled peptide (P) substrate and glycopeptide (GP) product are separated by reverse-phase chromatography using UPLC. The glycopeptide elutes earlier than the peptide and amounts of glycopeptide are quantified at different reaction time points by peak integration. C, quantification of kinetic parameters for synthetic peptide TAMRA-DANYTK. Reactions were performed with 2.8 μg purified extract containing OST3 complex before size-exclusion chromatography (approximately 1 μM OST3 complex), 150 μM LLO C20, and varying concentrations of the peptide. Glycopeptide product was measured by UPLC and turnover rates were determined by linear regression of the initial phase of the reaction and taking into account the enzyme concentration. The mean of three reactions is shown and the data were fitted by nonlinear regression according to the Michaelis–Menten formula (R^2 = 0.9803) using Prism. Error bars indicate standard deviations from the mean (n = 3). D, screening glycosylatable peptides derived from highly glycosylated yeast sequences. Reactions were performed with 0.4 μM purified OST3 complex, 150 μM LLO C20, 25 μM TAMRA-DANYTK, and 25 μM unlabeled competitor peptide. TAMRA-DANYTK glycopeptide product formed after 30 min was measured by UPLC and % inhibition was determined relative to a control reaction containing no unlabeled competitor peptide. E, quantification of kinetic parameters for synthetic peptide TAMRA-YANATS. Reactions were performed with 0.1 μM purified OST3 complex, 100 μM LLO C20, and varying concentrations of the peptide. Turnover rates were determined as in C. The mean of three reactions is shown and the data were fitted by nonlinear regression according to the Michaelis–Menten formula (R^2 = 0.9794) using Prism. Error bars indicate standard deviations from the mean (n = 3). P, phosphate; TAMRA, tetramethylrhodamine.
TAMRA-labeled peptides with 5-TAMRA at the N-terminus and an amide group at the C-terminus were synthesized by WatsonBio Sciences. Unlabeled peptides (Table S1) were synthesized by Genscript Corp. and were designed so that the asparagine of the glycosylation sequon was in the middle (except for Peptide 8). Lyophilized peptides were dissolved in dimethyl sulfoxide (DMSO), unless specified otherwise, to a 3 mM stock solution and further diluted in ddH2O for reactions.
Reactions were performed in a total volume of 10 μl containing the specified amount of TAMRA-labeled peptide, synthetic LLO analog, 10 mM MnCl2, and purified OST after size-exclusion chromatography in purification buffer (50 mM Hepes, pH 7.5, 150 mM NaCl, 1 mM MgCl2, 1 mM MnCl2, 10% (v/v) glycerol, 0.03% (w/v) DDM, and 0.006% (w/v) CHS). The concentration of OST was calculated using the molecular weight of 280 kDa. The reaction mixture was preincubated at 30 °C for 5 min before adding the peptide to start the reaction that proceeded at 30 °C. Time points were taken such that the reaction was in the linear phase. At each time point, 1 μl reaction mixture was taken and the reaction was stopped by dilution in stop solution (0.1% FA in 10% ACN, 10 mM KPO4 pH 8.0) such that the final peptide concentration was 2 μM.
Samples were analyzed by reverse-phase chromatography using a UPLC Dionex UltiMate 3000 with an Accucore 150-C18 100 × 2.1 mm 2.6 μm column (Thermo Fisher Scientific). […]

[1] = 0.1 μM purified OST3 complex, 100 μM LLO C20, 10–500 μM peptide

TAMRA-DANYTK-NH2 [fluorescently labeled hexapeptide TAMRA-DANYTK-NH2 as the acceptor peptide, reference compound]
kcat/KM (2.8 μg purified extract (approx. 1 μM OST3 complex), 150 μM LLO C20): 0.02 min^-1 μM^−s1
Km (2.8 μg purified extract (approx. 1 μM OST3 complex, before SEC), 150 μM LLO C20, 10–400 μM peptide, saturation not reached, listed as TAMRA-DANYTK-NH2): ~200 µM
Km (2.8 μg purified extract (approx. 1 μM OST3 complex, before SEC), 150 μM LLO C20, 10–400 μM peptide, saturation not reached): 201 ± 51.3 µM
kcat (apparent) (2.8 μg purified extract (approx. 1 μM OST3 complex, before SEC), 150 μM LLO C20, 10–400 μM peptide): 0.065 ± 0.01 s⁻¹

TAMRA-YANATS [shorter version of Peptide 5 of only six amino acid residues (TAMRA-YANATS)]
kcat/KM (0.1 μM purified OST3 complex, 100 μM LLO C20): 0.26 min^-1 μM^−s1
Km [1]: 55.6 ± 6.5 µM
kcat (apparent) [1]: 0.242 ± 0.012 s⁻¹
specificity relative to TAMRA-DANYTK (OST3 complex): over ten times more specific
fold lower apparent KM (OST3 complex, relative to TAMRA-DANYTK): 3.5 fold
